Our source for the IC50 values is patent US20260015350A1, “AZAQUINAZOLINE PAN-KRAS INHIBITORS” (Mirati Therapeutics, Inc., priority 2022, published 2026).

In assay [1] the target is T1, KRas^WT (Homo sapiens, UniProt P01116).
T1 construct: Biotinylated KRas (corresponding to amino acids 1-169, produced at Accelegan Inc.); biotin (biotinylated); purchased Accelegan Inc
The experiment in a line: KRas binding assay (TR-FRET tracer displacement), KRas WT. The conditions noted are these: TR-FRET tracer displacement, KRas WT.

For assay [2], the target named is T2, KRas^G12C (Homo sapiens, UniProt P01116, G12C).
T2 construct: Biotinylated KRas (corresponding to amino acids 1-169, produced at Accelegan Inc.); biotin (biotinylated); purchased Accelegan Inc
The experiment in a line: KRas binding assay (TR-FRET tracer displacement), KRas G12C. The conditions noted are these: TR-FRET tracer displacement, KRas G12C.

In assay [3] the target is T3, KRas^G12D (Homo sapiens, UniProt P01116, G12D).
T3 construct: Biotinylated KRas (corresponding to amino acids 1-169, produced at Accelegan Inc.); biotin (biotinylated); purchased Accelegan Inc
The experiment in a line: KRas binding assay (TR-FRET tracer displacement), KRas G12D.

In assay [4] the target is T4, KRas^G12S (Homo sapiens, UniProt P01116, G12S).
T4 construct: Biotinylated KRas (corresponding to amino acids 1-169, produced at Accelegan Inc.); biotin (biotinylated); purchased Accelegan Inc
Nature of the assay: KRas binding assay (TR-FRET tracer displacement), KRas G12S. The conditions noted are these: TR-FRET tracer displacement, KRas G12S.

In assay [5] the target is T5, KRas^G12V (Homo sapiens, UniProt P01116, G12V).
T5 construct: Biotinylated KRas (corresponding to amino acids 1-169, produced at Accelegan Inc.); biotin (biotinylated); purchased Accelegan Inc
The experiment in a line: KRas binding assay (TR-FRET tracer displacement), KRas G12V.

The test system of assay [6] is KRas-mediated phosphorylation of ERK in PSN1 cells. Nature of the assay: Inhibition of KRas-mediated phosphorylation of ERK (Cisbio HTRF pERK), PSN1 cells. The conditions noted are these: Homo sapiens. Type of assay: cell-based. The gist of the method: (§1)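 Day 1 seeding: 6,000 cells per well, RPMI/10% FBS, left overnight at 37° C. with 5% CO2. Plates then stood covered for 4 h at room temperature prior to HTRF detection of pERK.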

For assay [7], the system named is KRas-mediated phosphorylation of ERK in AsPC-1 cells. Nature of the assay: Inhibition of KRas-mediated phosphorylation of ERK (Cisbio HTRF pERK), AsPC-1 cells. Type of assay: cell-based. The settings on record: Homo sapiens, ASPC1, AsPC-1 cells; HTRF pERK. The gist of the method: (§2)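 Cells were seeded at 6,000 per well and treated for 3 hrs with compound in a 10-dose, 3-fold series from 10 uM (0.8% final DMSO), with 0.2 uM Trametinib as Min control. Lysates made at 4° C over 40 mins were incubated 2 hrs at room temperature with d2- and Cryptate-labelled antibodies, then read by HTRF.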

Assay [8] concerns KRas-mediated phosphorylation of ERK in H727 cells. The experiment in a line: Inhibition of KRas-mediated phosphorylation of ERK (Cisbio HTRF pERK), H727 cells. Type of assay: cell-based. The settings on record: Homo sapiens, NCI-H727, H727 cells; HTRF pERK. The gist of the method:
as §2

Assay [9] deals with KRas-mediated phosphorylation of ERK in A549 cells. The experiment in a line: Inhibition of KRas-mediated phosphorylation of ERK (Cisbio HTRF pERK), A549 cells. In kind it is cell-based. The settings on record: Homo sapiens, HTRF pERK. The gist of the method:
(§3)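 Compound treatment lasts 3 hrs on 6,000 seeded cells, testing 10 doses from a 10 uM top concentration in 3-fold decrements at 0.8% final DMSO. Trametinib at 0.2 uM defines the Min signal. Detection is HTRF on cold-lysed cell extracts.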

Assay [10] relates to KRas-mediated phosphorylation of ERK in H460 cells. Nature of the assay: Inhibition of KRas-mediated phosphorylation of ERK (Cisbio HTRF pERK), H460 cells. In kind it is cell-based. The conditions noted are these: Homo sapiens, NCI-H460, HTRF pERK. The method in brief:
as §2

The test system of assay [11] is KRas-mediated phosphorylation of ERK in HCT116 cells. Nature of the assay: Inhibition of KRas-mediated phosphorylation of ERK (Cisbio HTRF pERK), HCT116 cells. In kind it is cell-based. The settings on record: Homo sapiens, HCT-116, HTRF pERK. The method in brief:
as §3

Assay [12] has as its system KRas-mediated phosphorylation of ERK in H358 cells. Nature of the assay: Inhibition of KRas-mediated phosphorylation of ERK (Cisbio HTRF pERK), H358 cells. In kind it is cell-based. The conditions noted are these: Homo sapiens, NCI-H358, HTRF pERK. The gist of the method:
as §2

The test system of assay [13] is KRas-mediated phosphorylation of ERK in MKN1 cells. Nature of the assay: Inhibition of KRas-mediated phosphorylation of ERK (Cisbio HTRF pERK), MKN1 cells. In kind it is cell-based. The conditions noted are these: Homo sapiens, MKN-1. The gist of the method: as §1

Some results are limits rather than exact numbers.

T2 sequence (P01116 1-169 isoform P01116-2 G12C): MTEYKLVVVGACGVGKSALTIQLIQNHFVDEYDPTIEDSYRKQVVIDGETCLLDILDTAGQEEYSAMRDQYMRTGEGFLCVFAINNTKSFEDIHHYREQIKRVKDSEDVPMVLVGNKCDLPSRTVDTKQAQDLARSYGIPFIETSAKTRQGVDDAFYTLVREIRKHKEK
T3 sequence (P01116 1-169 isoform P01116-2 G12D): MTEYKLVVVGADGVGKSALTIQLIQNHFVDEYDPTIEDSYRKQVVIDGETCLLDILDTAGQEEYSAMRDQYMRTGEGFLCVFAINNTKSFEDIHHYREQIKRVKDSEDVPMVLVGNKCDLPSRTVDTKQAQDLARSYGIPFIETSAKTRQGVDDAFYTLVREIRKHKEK
T5 sequence (P01116 1-169 isoform P01116-2 G12V): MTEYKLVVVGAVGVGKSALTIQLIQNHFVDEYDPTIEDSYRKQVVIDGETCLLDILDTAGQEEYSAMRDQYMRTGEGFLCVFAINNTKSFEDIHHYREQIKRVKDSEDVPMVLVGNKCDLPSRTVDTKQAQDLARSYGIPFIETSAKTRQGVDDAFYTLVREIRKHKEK
T1 sequence (P01116 1-169 isoform P01116-2): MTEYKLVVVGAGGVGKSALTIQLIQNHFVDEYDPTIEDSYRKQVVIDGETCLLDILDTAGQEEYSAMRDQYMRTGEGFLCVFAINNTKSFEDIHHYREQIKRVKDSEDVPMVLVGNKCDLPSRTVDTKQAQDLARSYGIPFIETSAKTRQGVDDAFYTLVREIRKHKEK
T4 sequence (P01116 1-169 isoform P01116-2 G12S): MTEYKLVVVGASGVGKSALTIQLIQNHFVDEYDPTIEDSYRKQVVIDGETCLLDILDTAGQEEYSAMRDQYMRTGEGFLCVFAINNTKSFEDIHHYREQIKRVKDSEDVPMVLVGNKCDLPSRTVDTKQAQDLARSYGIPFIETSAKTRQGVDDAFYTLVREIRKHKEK

For `C=C1CN2CCCC2(COc2nc(N3CCCC(C)(O)C3)c3cnc(-c4cc(O)cc5ccc(F)c(CC)c45)c(F)c3n2)C1` (stereo in doubt) [Example 797, (3R)-1-(7-(8-ethyl-7-fluoro-3-hydroxynaphthalen-1-yl)-8-fluoro-2-((2-methylenetetrahydro-1H-pyrrolizin-7a(5H)-yl)methoxy)pyrido[4,3-d]pyrimidin-4-yl)-3-methylpiperidin-3-ol], the IC50 in assay [1] was < 2 nM; in assay [2], < 2 nM; in [3], < 2 nM; in [4], < 2 nM; in assay [5], < 2 nM; in assay [6], 296 nM. Also, the IC50 in assay [7] stood at 1 nM; in [8], 4 nM; in assay [9], 3 nM; in assay [10], 3 nM; in assay [11], 10 nM; in [12] it was 1 nM.
`CCc1c(F)ccc2cc(O)cc(-c3ncc4c(N5C[C@@H]6C[C@H](C5)[C@H](O)C6)nc(OCC56CC(F)CN5CC(F)C6)nc4c3F)c12` (stereo partly drawn) [Example 923, (1R,5R,6R)-3-(2-((2,6-difluorotetrahydro-1H-pyrrolizin-7a(5H)-yl)methoxy)-7-(8-ethyl-7-fluoro-3-hydroxynaphthalen-1-yl)-8-fluoropyrido[4,3-d]pyrimidin-4-yl)-3-azabicyclo[3.2.1]octan-6-ol]: the half-inhibitory concentration (IC50) was determined as 8 nM in [1]; 7 nM in assay [2]; 18 nM in assay [3]; 5 nM in assay [4]; 4 nM in assay [5]; 9 nM in [13]. The IC50 in assay [6] was > 10000 nM; in assay [7] it was 365 nM; in assay [8] it was 125 nM.
With `CCc1c(F)ccc2cc(O)cc(-c3ncc4c(N5C[C@@H]6C[C@H](C5)[C@H](O)C6)nc(OCC56CCCN5CC(F)(F)C6)nc4c3F)c12` (stereo partly drawn) [Example 924, (1R,5R,6R)-3-(2-((2,2-difluorotetrahydro-1H-pyrrolizin-7a(5H)-yl)methoxy)-7-(8-ethyl-7-fluoro-3-hydroxynaphthalen-1-yl)-8-fluoropyrido[4,3-d]pyrimidin-4-yl)-3-azabicyclo[3.2.1]octan-6-ol], the IC50 in assay [1] was 7 nM; in assay [2] it was 7 nM; in assay [3], 14 nM; in assay [4] it was 5 nM; in assay [5], 4 nM; in assay [13], 14 nM. In addition, the values for the concentration for half-maximal inhibition (IC50) in [6], in assay [7] and in assay [8] were > 10000 nM, 262 nM and 118 nM, respectively.
As for `C[C@@H]1C[C@@H]1c1c(Cl)cc(O)cc1-c1ncc2c(N3CCCn4nc(C(=O)N(C)C)cc4C3)nc(OCC34CCCN3C/C(=C\F)C4)nc2c1F` (stereo partly drawn) [Example 936, 5-(7-(3-chloro-5-hydroxy-2-((1S,2R)-2-methylcyclopropyl)phenyl)-8-fluoro-2-(((Z)-2-(fluoromethylene)tetrahydro-1H-pyrrolizin-7a(5H)-yl)methoxy)pyrido[4,3-d]pyrimidin-4-yl)-N,N-dimethyl-5,6,7,8-tetrahydro-4H-pyrazolo[1,5-a][1,4]diazepine-2-carboxamide], the IC50 in assay [1] is 3 nM; in assay [2], 2 nM; in assay [3] it was < 2 nM; in assay [4], < 2 nM; in [5] it was < 2 nM; in assay [13], 2 nM. Further, the IC50 worked out at 17 nM in [7]; 25 nM in assay [8]; 71 nM in assay [9]; 104 nM in assay [10]; 262 nM in assay [11]; 11 nM in [12].
On to `C[C@@H]1C[C@@H]1c1c(Cl)cc(O)cc1-c1ncc2c(N3CCC[C@]4(C3)NC(=O)NC4=O)nc(OCC34CCCN3C/C(=C\F)C4)nc2c1F` (stereo partly drawn) [Example 937, (5R)-7-(7-(3-chloro-5-hydroxy-2-((1S,2R)-2-methylcyclopropyl)phenyl)-8-fluoro-2-(((Z)-2-(fluoromethylene)tetrahydro-1H-pyrrolizin-7a(5H)-yl)methoxy)pyrido[4,3-d]pyrimidin-4-yl)-1,3,7-triazaspiro[4.5]decane-2,4-dione], for which the IC50 in assay [1] is < 2 nM; in [2], < 2 nM; in assay [3] it was < 2 nM; in assay [4] it was < 2 nM; in assay [5], < 2 nM; in assay [13], 1 nM. The IC50 was determined as 116 nM in assay [7]; 116 nM in assay [8]; 55 nM in [9]; 36 nM in [10]; 88 nM in assay [11]; 12 nM in assay [12].
Turning to `C/C=C1/CN2CCCC2(COc2nc(N3C[C@@H]4C[C@H](C3)[C@H](O)C4)c3cnc(-c4cc(O)cc5ccc(F)c(CC)c45)c(F)c3n2)C1` (stereo partly drawn) [Example 939, (1R,5R,6R)-3-(7-(8-ethyl-7-fluoro-3-hydroxynaphthalen-1-yl)-2-(((E)-2-ethylidenetetrahydro-1H-pyrrolizin-7a(5H)-yl)methoxy)-8-fluoropyrido[4,3-d]pyrimidin-4-yl)-3-azabicyclo[3.2.1]octan-6-ol], the IC50 was < 2 nM in assay [1]; < 2 nM in assay [2]; < 2 nM in assay [3]; < 2 nM in assay [4]; < 2 nM in assay [5]; 0.1 nM in assay [13]. In addition, the IC50 worked out at 32 nM in [7]; 28 nM in [8]; 11 nM in assay [9]; 18 nM in [10]; 27 nM in assay [11]; 5 nM in assay [12].
Regarding `C=C1CN2CCCC2(COc2nc(N3CCCC4(CNS(=O)(=O)N4)C3)c3cnc(-c4cc(O)cc5ccc(F)c(CC)c45)c(F)c3n2)C1` (stereo not drawn) [Example 940, 7-(7-(8-ethyl-7-fluoro-3-hydroxynaphthalen-1-yl)-8-fluoro-2-((2-methylenetetrahydro-1H-pyrrolizin-7a(5H)-yl)methoxy)pyrido[4,3-d]pyrimidin-4-yl)-2-thia-1,3,7-triazaspiro[4.5]decane 2,2-dioxide], the IC50 was < 2 nM in assay [1]; < 2 nM in [2]; < 2 nM in [3]; < 2 nM in assay [4]; < 2 nM in [5]; 2 nM in assay [13]. Moreover, the IC50 in assay [7] was 42 nM; in assay [8], 72 nM; in assay [9] it was 33 nM; in assay [10], 17 nM; in assay [11], 43 nM; in [12], 10 nM.
For `CCc1c(F)ccc2cc(O)cc(-c3ncc4c(N5C[C@@H]6C[C@H](C5)[C@H](O)C6)nc(OC[C@@H]5CC[C@H]6COCCN65)nc4c3F)c12` [Example 945, (1R,5R,6R)-3-(7-(8-ethyl-7-fluoro-3-hydroxynaphthalen-1-yl)-8-fluoro-2-(((6S,8aS)-hexahydro-1H-pyrrolo[2,1-c][1,4]oxazin-6-yl)methoxy)pyrido[4,3-d]pyrimidin-4-yl)-3-azabicyclo[3.2.1]octan-6-ol], the IC50 in assay [1] is 3 nM; in assay [2], 4 nM; in assay [3] it was 6 nM; in assay [4], < 2 nM; in assay [5] it was 3 nM; in [13] it was 0.2 nM. The IC50 in assay [7] is 79 nM; in assay [8] it was 29 nM; in assay [9] it was 46 nM; in [10], 29 nM; in assay [11] it was 40 nM; in assay [12], 12 nM.
